Test systems include UO-31 renal; MDA-N; NCI-H226 lung; HCC-2998 colon; SK-MEL-2 melanoma; CCRF-CEM leukemia; NCI-H460 lung; BT-549 breast; SF-295 CNS; HL-60(TB) leukemia.
Experiment in all cases: NCI tumour cell line growth inhibition, 48 h

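All cell lines were grown in 96-well plates and treated with compound for 48 hours. TGI is the concentration that stops growth completely.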 Bounds are passed on as bounds.

As for `c1ccc(C2=Nn3c(CCCCCCCCc4nnc5n4N=C(c4ccccc4)CS5)nnc3SC2)cc1`, the TGI with UO-31 renal is > 100 µM; with MDA-N it was > 100 µM; in the assay on NCI-H226 lung it was > 100 µM; with HCC-2998 colon, > 100 µM; in the assay on SK-MEL-2 melanoma it was > 88.7 µM; in the assay with CCRF-CEM leukemia, > 59.7 µM. Further, the TGI with NCI-H460 lung was > 100 µM; in the assay on BT-549 breast it was > 100 µM; in the assay on SF-295 CNS, 55.3 µM.

Turning to `COC(=O)c1cc(C)ccc1CC(Cc1ccc(C)cc1)C(=O)OC` (stereo not drawn), the TGI in the assay on UO-31 renal was > 100 µM; in the assay on MDA-N, > 100 µM; in the assay on NCI-H226 lung, > 100 µM; in the assay with HCC-2998 colon, > 100 µM; in the assay with SK-MEL-2 melanoma, > 90.3 µM; in the assay with CCRF-CEM leukemia it was > 100 µM. Also, the TGI in the assay on NCI-H460 lung is > 100 µM; with HL-60(TB) leukemia it was > 29.1 µM; in the assay on BT-549 breast, > 100 µM; with SF-295 CNS, > 100 µM.

With `C[C@]1(S(=O)(=O)c2ccccc2)C[C@H]2N(Cc3ccccc3)[C@@H]1CCC21OCCO1`, the TGI in the assay with UO-31 renal is > 100 µM; in the assay on MDA-N it was > 100 µM; with SK-MEL-2 melanoma it was > 100 µM; with CCRF-CEM leukemia, > 100 µM; with NCI-H460 lung, > 100 µM; in the assay with HL-60(TB) leukemia, 32.6 µM. Moreover, the TGI with BT-549 breast and with SF-295 CNS was > 100 µM each time.

On to `COc1cc2c(cc1OC)C13CC[N+]4(C)CC5=CCOC6CC(=O)N2C1C6C5CC34[O-]` (stereo not drawn), for which the TGI with UO-31 renal, with MDA-N, in the assay with NCI-H226 lung, in the assay with CCRF-CEM leukemia, in the assay with NCI-H460 lung and in the assay with HL-60(TB) leukemia was > 100 µM in each case. Moreover, the TGI with BT-549 breast and in the assay on SF-295 CNS was > 100 µM in each case.

Consider `Nc1nc(Nc2ccc(Cl)cc2)sc1C(=O)c1cccs1`, for which the TGI in the assay on UO-31 renal was 95.9 µM; with MDA-N, > 100 µM; in the assay with NCI-H226 lung, 75.3 µM; with SK-MEL-2 melanoma, > 100 µM; with CCRF-CEM leukemia it was > 100 µM; in the assay with NCI-H460 lung, > 100 µM. Moreover, the TGI with HL-60(TB) leukemia and in the assay on BT-549 breast was > 100 µM throughout.

On to `N#Cc1c(C#N)c(-c2ccccc2)n(-c2ccccc2)c1N`, for which the TGI in the assay on UO-31 renal, in the assay on MDA-N, with NCI-H226 lung, in the assay with SK-MEL-2 melanoma, with CCRF-CEM leukemia and in the assay with HL-60(TB) leukemia was > 100 µM each time. The TGI in the assay on BT-549 breast and in the assay on SF-295 CNS was > 100 µM throughout.

On to `c1ccc(-c2cnc(-c3ccc(-c4ncc(-c5ccccc5)o4)cc3)o2)cc1`, for which the TGI in the assay with UO-31 renal, with MDA-N, with NCI-H226 lung, in the assay on HCC-2998 colon, in the assay with CCRF-CEM leukemia and in the assay on NCI-H460 lung was > 100 µM in each case. The TGI in the assay with HL-60(TB) leukemia, in the assay on BT-549 breast and with SF-295 CNS was > 100 µM throughout.

For `CCOC(=O)C1(C(=O)OCC)CCCN1C(=O)[C@H](CNC(=O)OC(C)(C)C)NC(=O)OCc1ccccc1`, the TGI in the assay with UO-31 renal, in the assay on MDA-N, with NCI-H226 lung, in the assay on HCC-2998 colon, with SK-MEL-2 melanoma and in the assay with CCRF-CEM leukemia was > 100 µM in each case. Moreover, the TGI in the assay on NCI-H460 lung, in the assay on BT-549 breast and in the assay with SF-295 CNS was > 100 µM in each case.

For the compound `CN(C)P(=O)(Oc1occc1C(O)Cc1ccccc1)N(C)C` (stereo not drawn), the TGI in the assay on UO-31 renal, in the assay with MDA-N, with NCI-H226 lung, with HCC-2998 colon, in the assay on SK-MEL-2 melanoma and in the assay on CCRF-CEM leukemia was > 100 µM each time. The TGI with NCI-H460 lung, in the assay on BT-549 breast and with SF-295 CNS was > 100 µM throughout.

As for `CCCOC(=O)NC(C)C(=O)NC(CCC(=O)NC(CCCC(N)C(=O)O)C(=O)NC(C)C(=O)O)C(=O)O` (stereo not drawn), the TGI is > 100 µM in the assay on UO-31 renal; 44.6 µM in the assay on MDA-N; 34.8 µM with HCC-2998 colon; > 100 µM in the assay with SK-MEL-2 melanoma; 36.9 µM with CCRF-CEM leukemia; > 100 µM in the assay on NCI-H460 lung. Further, the figures for the TGI with HL-60(TB) leukemia, in the assay on BT-549 breast and in the assay with SF-295 CNS were 42.1 µM, 37.9 µM and 30.9 µM, respectively.

`O=C(O)CSC(NC(=O)C(C(F)(F)F)C(F)(F)F)(C(F)(F)F)C(F)(F)F`: the TGI with UO-31 renal, in the assay on MDA-N, in the assay on HCC-2998 colon, in the assay on SK-MEL-2 melanoma, in the assay on CCRF-CEM leukemia and in the assay on HL-60(TB) leukemia was > 100 µM throughout. Besides, the TGI with BT-549 breast was > 100 µM.

Turning to `CC(C)(C)OC(=O)C1C(=O)NC(=O)CC1C(COCc1ccccc1)OCc1ccccc1` (stereo not drawn), the TGI in the assay with UO-31 renal was found to be 55.8 µM; in the assay on MDA-N, 36.2 µM; in the assay with NCI-H226 lung it was 39.4 µM; in the assay on HCC-2998 colon it was 47.7 µM; in the assay with CCRF-CEM leukemia, 77.3 µM; in the assay on HL-60(TB) leukemia it was 60.6 µM. Besides, the TGI was determined as 55.6 µM in the assay on BT-549 breast and 43.3 µM with SF-295 CNS.

For the compound `OCC(O)C(O)C(O)/C=N/Nc1nc(O)c(/C=C2\C=Nc3ccccc32)[nH]1` (stereo not drawn), the TGI in the assay with MDA-N, in the assay on NCI-H226 lung, in the assay with HCC-2998 colon, with CCRF-CEM leukemia, in the assay with NCI-H460 lung and in the assay on HL-60(TB) leukemia was > 100 µM each time. Besides, the TGI in the assay with BT-549 breast and in the assay with SF-295 CNS was > 100 µM each time.

For the compound `O=C(O)CC(NC(=O)/C(=C/c1ccccc1O)NC(=O)c1ccccc1)C(=O)O` (stereo not drawn), the TGI in the assay with UO-31 renal, in the assay on MDA-N, with NCI-H226 lung, with HCC-2998 colon, with SK-MEL-2 melanoma and in the assay on CCRF-CEM leukemia was > 100 µM in each case. Besides, the values for the TGI with HL-60(TB) leukemia, in the assay on BT-549 breast and in the assay on SF-295 CNS were 76.5 µM, > 100 µM and > 100 µM, respectively.

On to `COC(=O)C1=C(O)C(C(=O)OC)[C@@]2(O)[C@@H](C(=O)OC)[C@H](C)[C@@H](C)[C@@H]1[C@@H]2C(=O)OC` (stereo partly drawn), for which the TGI was > 100 µM with UO-31 renal; 50.1 µM with MDA-N; > 100 µM in the assay on NCI-H226 lung; > 100 µM with HCC-2998 colon; > 100 µM in the assay on SK-MEL-2 melanoma; > 100 µM in the assay on CCRF-CEM leukemia. The TGI with NCI-H460 lung, in the assay with HL-60(TB) leukemia and in the assay on BT-549 breast was > 100 µM in each case.

(Values after PubChem BioAssay (NCI).)
